Source: patent publication US8895502B2, “β2-glycoprotein I peptide inhibitors” (Kansas State University Research Foundation, priority 2010, dated 2014)
“Also recorded” adds a separate entry of the source. Ends that are not written are not given here.

How the values were obtained:
[1] = system: LTB4; test: Intestinal IR, ex vivo LTB4 generation; type: in vivo, mouse; settings: 40 μM peptide at 5 min prior to ischemia and 15-, 30- or 60-min post-ischemia
[2] = system: B16-F10 mouse melanoma; test: B16-F10 melanoma model, tumor growth and vascularization; type: in vivo
Protocol: The mouse melanoma cell line, B16-F10 (ATCC CRL-6475), was cultured in DMEM supplemented with 10% fetal bovine serum at 8% CO2 until confluent. C57Bl/6 mice were injected subcutaneously with 2×10^6 cells mixed 1:1 in matrigel (BD Biosciences) and tumor growth was evaluated daily for up to 10 days using calipers. Some mice received 40 μM peptide daily for the first 4 days and then every other day until termination of the study. Control mice received N. saline. At the end of the study, the tumors were dissected and tumor volume determined by saline displacement. Photomicrographs (10×) of representative B16-F10 tumors extracted from C57Bl/6 wildtype mice were taken with a Nikon CoolSnap CF camera and an Olympus SZ61 microscope.
The study was repeated using additional C57Bl/6 mice, which were injected subcutaneously with 2×10^6 cells mixed with matrigel (above) 6-10 days before tumor excision. Peptide treated mice received 40 μM peptide 296Cys-Ser on days 1, 2, 3, 4, 6, and 8 after injection (n=2-5 animals/group) or days 3, 5, 7, 9 or only on days 4, 6, and 8. At the end of the study, the tumors were excised, measured, and volume was determined by aqueous displacement. Tumors were cut in half longitudinally with one half homogenized in Trizol for RNA and the other placed in OCT for histological analysis. Both halves were snap frozen and stored at −80° C. until used.

[3] = system: C57Bl/6 mice; test: Hemorrhage-induced intestinal damage and inflammation; type: in vivo, mouse; settings: 40 uM peptide after blood loss, 2 hours post-hemorrhage
Protocol: After a 1-week acclimatization period, mice were anesthetized using […]. Mice undergoing hemorrhage were subjected to retro-orbital removal of 30% of the calculated blood volume (approximately 0.5 mL) over a 90-second period (Fleming, S. D. et al., J. Surg. Res. 150:196-203 (2008); Hylton, D. J. et al., Shock 34:467-474 (2010); Hylton, D. J. et al., Shock 35: 134-140 (2011)). Volume of blood to be removed was based on animal weight and ranged from […] (body weight in grams×0.025). The determined blood volume was measured in water and marked on both the collection tubes and the capillary tubing used for retro-orbital punctures. This ensured that the correct amount would be withdrawn. A single retro-orbital puncture was sufficient for blood collection. The 2 hour mortality rate was less than 1%. Sham mice were subjected to similar procedures with no blood removal. Mice were randomly assigned to receive 40 uM peptide (80 ng/mouse) in a volume of 80-150 μL, or an equal volume of normal saline. To prevent spontaneous complement activation, all studies were performed in the absence of heparin. At 2 hours post-hemorrhage, mice were euthanized and tissues collected for analysis. Intestinal tissues were formalin fixed for analysis of injury and frozen sections were obtained for immunohistochemistry. […]

[4] = system: VEGF; test: Spontaneous breast cancer model, VEGF RNA expression; type: in vivo, mouse; settings: mammary tumors, compared to saline treated animals
Protocol: (§1) mRNA was isolated from the tumor samples that were homogenized in Trizol. The concentration of mRNA was evaluated by nanodrop and the purity by bioanalyzer. cDNA was then synthesized using random primers with the Quanta cDNA synthesis kit. RT-PCR was then performed on a 1:100 dilution of cDNA for 18s rRNA. After 3 min denaturing at 95° C., the real-time PCR reaction consisted of 50 cycles (of 10 sec at 95° C., 20 sec at 58° C., and 10 sec at 72° C.), followed by a melt curve increasing at intervals of 0.5° C. from 60° C. to 95° C. RT-PCR was also performed on cDNA samples for CD31 and VEGF which are endothelial markers of angiogenesis. After subtracting 18s Ct values, peptide treated dCt values were normalized to saline treated samples and fold change calculated as ddCt. Primers were obtained from Integrated DNA Technology (Coraville, Iowa) and sequences are in the table below.

[5] = system: CD31; test: B16-F10 melanoma model, CD31 expression in tumors; type: in vivo, mouse
Protocol: as §1, with “kit. Real-time PCR” for “kit. RT-PCR”, “0.5°” for “0.5° C.”, “and endoglin” for “and VEGF”, “angiogenesis. Fold change of each gene was determined by” for “angiogenesis. After”, “18s for normalization of RNA” for “18s Ct values, peptide treated dCt values were normalized to saline treated samples”, “change was determined by comparing to original cells which were set to 1.” for “change calculated as ddCt.”
OCT cryopreserved tumor sections were cut and stained similar to intestinal sections in Example 1. CD31 and Pan-endothelial expression was detected by FITC conjugated rat anti-mouse CD31 or pan-endothelial antibodies (Biolegend, San Diego, Calif.). Each experiment contained serial sections stained with the appropriate isotype control antibodies. All slides were mounted with ProLong Gold (Invitrogen) and images were obtained and analyzed as described in Example 1.

[6] = system: thioglycollate-elicited macrophages, IL-6; test: β2-GPI stimulated macrophage IL-6 production; type: cell-based; settings: mouse β2-GPI 10 μg/mL, peptide 40 μM, 18 hours
Protocol: C57Bl/6 mice were injected i.p. with 1 mL thioglycollate (4%) 4 days prior to peritoneal lavage. Peritoneal exudate macrophages or the B cell line, LK35.2, were seeded at 2×10^6 cells/mL in 24-well or 96-well plates. After macrophage adherence, both cell types were treated with mouse β2-GPI (10 μg/mL) with or without peptide (40 μM). Additional cells were unstimulated as a negative control or stimulated with 10 μg/mL LPS (E. coli 055B5) as a positive control. Supernatants were collected 18-20 hours after stimulation and analyzed for nitrite by Griess reagent (Hoffman & Fleming, Cell Biochem. Funct. 28:686-694 (2010)) or IL-6 by Milliplex MAP kit (Millipore) following the manufacturer's instructions using a Luminex 200 with xPONENT 3.1 and Analyst software (Millipore).

Substance	IR-induced LTB4, time course of administration [1]	tumor vascularization (appearance) ([2]; 2 mice injected with melanoma cells and peptide)	tumor volume, normal saline displaced ([2]; 2 mice injected with melanoma cells and peptide, day 8) [mL]	animals in which the tumor was either not present or had significantly diminished from the day of injection ([2]; early treatment (days 1-4, 6, 8))	angiogenesis in the B16F10 melanoma model ([2]; mouse, in vivo)	tumor growth and volume ([2]; repeat study, compared to untreated mice)	tumor growth ([2]; treatment on days 1-4, 6, and 8)	tumor growth ([2]; treatment on days 3, 5, 7, and 9)	hemorrhage-induced inflammation (PGE2 and IL-6 production) [3]	hemorrhage-induced intestinal damage [3]	RNA expression of VEGF [4]	protein expression of both endothelial markers ([5]; immunohistochemistry of tumors)	CD31 RNA expression within the tumors ([5]; peptide treatment on days 1-4, 6, and 8, qRT-PCR)	β2-GPI induced IL-6 production [6]
H-IHFYSKNKEKKSSYTVEAHSRDGTI-OH [peptide 296Cys-Ser]	significantly inhibited	neither tumor appear vascularized	0 to 0.1	3 of 7	attenuates angiogenesis	significantly decreased	attenuated tumor growth; also recorded: prevented growth	attenuated tumor growth	significantly lower; also recorded: inhibit	significantly lower; also recorded: inhibit	significantly decreased	decreased	attenuated	
H-KKCSYTVEAHCRDGTIEIPSCFKEHS-OH (cysteine pairing not given here) [peptide 305, 10]														attenuated
